Results from BindingDB's records for doi:10.3109/14756360903389864 (Quaid-I-Azam University, 2010).

Target: Urease (Canavalia ensiformis, UniProt P07374)
Assay: Urease Inhibition Assay

Urease, sequence (P07374 whole entry): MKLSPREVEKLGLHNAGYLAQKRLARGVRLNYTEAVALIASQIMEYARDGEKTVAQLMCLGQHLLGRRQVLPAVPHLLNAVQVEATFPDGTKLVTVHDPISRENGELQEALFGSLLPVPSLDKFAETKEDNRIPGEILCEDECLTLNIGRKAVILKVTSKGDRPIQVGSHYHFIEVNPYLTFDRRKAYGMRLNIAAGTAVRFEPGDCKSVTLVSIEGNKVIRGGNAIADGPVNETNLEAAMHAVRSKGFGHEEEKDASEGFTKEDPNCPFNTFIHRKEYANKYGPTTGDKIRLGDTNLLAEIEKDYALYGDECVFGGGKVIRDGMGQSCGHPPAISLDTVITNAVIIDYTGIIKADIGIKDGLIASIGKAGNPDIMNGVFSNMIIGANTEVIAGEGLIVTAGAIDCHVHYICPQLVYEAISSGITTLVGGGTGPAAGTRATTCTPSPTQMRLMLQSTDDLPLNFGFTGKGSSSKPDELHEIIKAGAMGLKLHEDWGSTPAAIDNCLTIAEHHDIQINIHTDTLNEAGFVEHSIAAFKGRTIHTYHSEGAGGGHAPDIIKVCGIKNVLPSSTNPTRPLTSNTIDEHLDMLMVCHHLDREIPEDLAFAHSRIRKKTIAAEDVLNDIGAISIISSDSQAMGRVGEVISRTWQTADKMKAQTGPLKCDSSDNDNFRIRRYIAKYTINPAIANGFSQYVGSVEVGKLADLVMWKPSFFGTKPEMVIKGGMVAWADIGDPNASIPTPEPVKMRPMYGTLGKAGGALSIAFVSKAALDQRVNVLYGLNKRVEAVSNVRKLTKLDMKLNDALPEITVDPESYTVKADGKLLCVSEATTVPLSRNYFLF

SMILES	IC50 [µM]
Cc1ccc(Nc2nnc(C(O)c3ccccc3)o2)cc1 (stereo unspecified) [5-(Hydroxybenzyl)-2-(4-methylphenyl)amino-1,3,4-oxadiazole (4d)]	16.1
O=[N+]([O-])c1ccc(Nc2nnc(C(O)c3ccccc3)o2)cc1 (stereo unspecified) [5-(Hydroxybenzyl)-2-(4-nitrophenyl)amino-1,3,4-oxadiazole (4e)]	80.3
OC(c1ccccc1)c1n[nH]c(=S)n1-c1ccc(Br)cc1 (stereo unspecified) [5-(Hydroxybenzyl)-4-(4-bromophenyl)-2H-1,2,4-triazole-3-thione (5a)]	32
OC(c1ccccc1)c1n[nH]c(=S)n1-c1ccc(Cl)cc1 (stereo unspecified) [5-(Hydroxybenzyl)-4-(4-chlorophenyl)-2H-1,2,4-triazole-3-thione (5b)]	18.9
Cc1ccc(-n2c(C(O)c3ccccc3)n[nH]c2=S)cc1 (stereo unspecified) [5-(Hydroxybenzyl)-4-(4-methylphenyl)-2H-1,2,4-triazole-3-thione (5d)]	16.7
O=[N+]([O-])c1ccc(-n2c(C(O)c3ccccc3)n[nH]c2=S)cc1 (stereo unspecified) [5-(Hydroxybenzyl)-4-(4-nitrophenyl)-2H-1,2,4-triazole-3-thione (5e)]	132
